Assay results taken from BindingDB's records for doi:10.7270/Q2V986KM (Burnham Center For Chemical Genomics, 2011).

The molecules below were run against T1, Carboxy-terminal domain RNA polymerase II polypeptide A small phosphatase 1 (Homo sapiens, UniProt Q9GZU7) (assay: Ultra-high-throughput screening actives, CTDSP1 enzyme inhibition, concentration-response testing, biochemical, absorbance detection (AID 540297)).
T1 sequence (Q9GZU7 whole entry): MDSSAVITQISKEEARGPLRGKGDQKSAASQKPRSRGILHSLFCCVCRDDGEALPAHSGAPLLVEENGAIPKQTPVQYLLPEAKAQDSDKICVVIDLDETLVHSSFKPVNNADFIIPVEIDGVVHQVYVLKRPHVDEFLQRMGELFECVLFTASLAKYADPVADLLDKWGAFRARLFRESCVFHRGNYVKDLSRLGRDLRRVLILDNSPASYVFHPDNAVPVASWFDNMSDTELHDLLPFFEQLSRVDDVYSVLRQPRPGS

IC50 [µM] | Compound
4.06 | Cc1ccc(C(=O)N[n+]2cc(O)[c-](-c3nc(-c4cccc([N+](=O)[O-])c4)cs3)c2N)cc1 [MLS000391743]
1.99 | Cc1cccc(NC(=O)CN2C(=O)/C(=N\NC(=O)c3ccccc3O)c3ccccc32)c1 [MLS000548432]
6 | Cc1ccc(OCC(=O)NN=C/C=C/c2ccco2)cc1 [MLS000563872]
5.15 | CC1=CC(=NNC(=O)c2ccccc2O)c2ccccc2C1=O [MLS000685531]
4.9 | O=C1C=C(O)/C(=C/NN2C(=O)C3C(C2=O)C2C=CC3C23CC3)C=C1[N+](=O)[O-] (stereo not given) [MLS000705206]
13.3 | CSc1nnc(C)c(CC=Nc2ccc(F)cc2F)n1 [MLS000707071]
19.3 | C=CCC1C=C(/C=C/c2nc(O)c([N+](=O)[O-])c(=O)[nH]2)C=C(OC)C1=O (stereo not given) [MLS000716350]
24.1 | Cc1ccc(C(=O)NN=C/C=C/c2ccc(Br)cc2)cn1 [MLS000723380]
1.85 | O=C(N/N=C/C1C=C(Cl)C=C([N+](=O)[O-])C1=O)c1cc(-c2ccccn2)nc2ccccc12 (stereo not given) [MLS000773704]
19.6 | COc1ccc(CN=Nc2ncc(Br)cn2)c(OC)c1 [MLS000856301]
3.73 | COc1ccccc1N/C(C)=[N+](\C)CCNS(=O)(=O)c1ccc(Cl)cc1 [MLS001165874]
4.83 | C/C(C=NNC(=O)c1ccc(Br)cc1)=C\c1ccccc1 [SMR000140417]
6.07 | Cc1ccc(-n2[nH]c(C)c(CN=Nc3ccc([N+](=O)[O-])cc3[N+](=O)[O-])c2=O)cc1 [SMR000171521]
5.96 | C[N+]1=C(CC=Nc2ccccc2Cl)C(C)(C)c2ccccc21 [SMR000173746]
5.67 | O=c1cc(O)[n+]2nc(-c3ccc([N+](=O)[O-])cc3)sc2[n-]1 [SMR000175134]
12.9 | Cc1ccc(-c2csc(-c3c(O)cn(NC(=O)c4ccco4)c3N)n2)cc1 [SMR000363171]
36.1 | O=C1C=CC(/C=C/c2nc(O)c([N+](=O)[O-])c(=O)[nH]2)C=C1O (stereo not given) [SMR000524347]

Continued, molecule first:

Compound | IC50 [µM]
COc1ccccc1NC(=O)CN1C(=O)/C(=N\NC(=O)c2ccccc2O)c2ccccc21 [2-hydroxy-N-[(Z)-[1-[2-(2-methoxyanilino)-2-oxoethyl]-2-oxo-3-indolylidene]amino]benzamide] | 2.74
Cc1ccccc1NC(=O)CN1C(=O)/C(=N\NC(=O)c2ccccc2O)c2ccccc21 [2-{3-[(2-Hydroxy-benzoyl)-hydrazono]-2-oxo-2,3-dihydro-indol-1-yl}-N-o-tolyl-acetamide] | 1.23
CC(=NNC(=O)c1cc(-c2cccc([N+](=O)[O-])c2)n[nH]1)C1C=CC=CC1=O (stereo not given) [3-(3-nitrophenyl)-N'-[(1E)-1-(6-oxo-1-cyclohexa-2,4-dienylidene)ethyl]-1H-pyrazole-5-carbohydrazide] | 1.7
O=NCc1cccn1-c1cccc(C(=O)O)c1 [3-[2-(hydroximinomethyl)pyrrol-1-yl]benzoic acid] | 3.09
O=C(O)c1cccc(-n2c(O)c3c(c2O)CC(Cl)=CC3)c1 [3-[5-chloranyl-1,3-bis(oxidanylidene)-3a,4,7,7a-tetrahydroisoindol-2-yl]benzoic acid] | 10.3
O=[N+]([O-])c1cccc(-c2csc(N=NCc3cccc(O)c3)n2)c1 [3-[[[4-(3-nitrophenyl)-1,3-thiazol-2-yl]hydrazinylidene]methyl]phenol] | 10.8
O=C1CC(=O)c2cccc(O)c2C1=O [4,8-dihydroxynaphthalene-1,2-dione] | 44.5
O=C(O)CCC(N=Nc1ccc(S(=O)(=O)N2CCCC2)cc1[N+](=O)[O-])c1cccs1 (stereo not given) [4-[(2-nitro-4-pyrrolidin-1-ylsulfonyl-phenyl)hydrazinylidene]-4-thiophen-2-yl-butanoic acid] | 15.5
N#CC1=c2sc(=Cc3ccco3)c(=O)n2C(=N)C(C#N)C1c1ccco1 (stereo not given) [5-amino-7-(furan-2-yl)-2-(furan-2-ylmethylidene)-3-oxo-7H-[1,3]thiazolo[3,2-a]pyridine-6,8-dicarbonitrile] | 3.44
CCCCCn1cc(O)c(-c2nc(-c3ccc(Cl)cc3)cs2)c1N [5-azanyl-4-[4-(4-chlorophenyl)-1,3-thiazol-2-yl]-1-pentyl-2H-pyrrol-3-one] | 5.38
CC=CC=CC(=O)C1C(=O)[C@]2(C)C(=O)C(C)(O)[C@H]1[C@H]([C@]1(C)OC(=O)C(C)C1=O)[C@H]2C(=O)C=CC=CC (stereo partly drawn) [(1S,4R,6E,7S,8R)-8-[(2E,4E)-hexa-2,4-dienoyl]-2-hydroxy-7-[(2S)-5-hydroxy-2,4-dimethyl-3-oxofuran-2-yl]-6-[(2E,4E)-1-hydroxyhexa-2,4-dienylidene]-2,4-dimethylbicyclo[2.2.2]octane-3,5-dione] | 5.92
Cc1ccc(-n2[nH]c(C)c(CN=Nc3ccc([N+](=O)[O-])cc3[N+](=O)[O-])c2=O)cc1C [(4E)-2-(3,4-dimethylphenyl)-4-[[(2,4-dinitrophenyl)hydrazo]methylidene]-5-methyl-3-pyrazolone] | 3.32
C=c1[nH]c(=Cc2ccc(CNC(=O)C(=O)Nc3ccccc3)o2)c(O)c1C(=O)OCC [(5E)-5-[[5-[[(2-anilino-1,2-dioxoethyl)amino]methyl]-2-furanyl]methylidene]-2-methyl-4-oxo-1H-pyrrole-3-carboxylic acid ethyl ester] | 8.55
C=CC1=C(C(=O)O)N2C(=O)[C@@H](NC(=O)C(N=O)c3csc(N)n3)[C@H]2SC1 (stereo partly drawn) [(6R,7R)-7-[[2-(2-azanyl-1,3-thiazol-4-yl)-2-hydroxyimino-ethanoyl]amino]-3-ethenyl-8-oxidanylidene-5-thia-1-azabicyclo[4.2.0]oct-2-ene-2-carboxylic acid] | 4.48
O=C(NN=C/C=C/c1ccc(Br)cc1)c1ccc2c(c1)OCO2 [Benzo[1,3]dioxole-5-carboxylic acid [3-(4-bromo-phenyl)-allylidene]-hydrazide] | 4.92
CCN(CC)P(=O)(NC(=O)C(Cl)(Cl)Cl)N(CC)CC [MLS000564159] | 2.49
CC1(CC(=O)NN=CC2C=C([N+](=O)[O-])C(=O)C=C2O)OCCO1 (stereo not given) [N'-[(E)-(2-hydroxy-5-nitro-4-oxocyclohexa-2,5-dien-1-ylidene)methyl]-2-(2-methyl-1,3-dioxolan-2-yl)acetohydrazide] | 4.41
CC(=NNC(=O)c1cccc(N=NC(C)c2ccco2)c1)c1ccco1 (stereo not given) [N-[1-(2-furanyl)ethylideneamino]-3-[2-[1-(2-furanyl)ethylidene]hydrazinyl]benzamide] | 3.17
Cc1cccc(C(=O)/N=c2\c(C#N)cc3c(=O)n4cccc(C)c4nc3n2Cc2ccco2)c1 [N-[3-cyano-1-(furan-2-ylmethyl)-10-methyl-5-oxodipyrido[3,4-c:1',2'-f]pyrimidin-2-ylidene]-3-methylbenzamide] | 5.58
Cc1ccc2c(c1)=C(NNC(=O)c1ccc(NS(=O)(=O)c3cccs3)cc1)C(=O)N=2 [N-[4-[[(5-methyl-2-oxoindol-3-yl)amino]carbamoyl]phenyl]thiophene-2-sulfonamide] | 11.5
O=C(NN=C/C=C/c1ccccc1)c1cc2c(ccc3ccccc32)o1 [N-[[(E)-3-phenylprop-2-enylidene]amino]-2-benzo[e]benzofurancarboxamide] | 1.72
O=C(NN=C/C=C\c1ccco1)c1ccccn1 [Pyridine-2-carboxylic acid [(Z)-3-furan-2-yl-prop-2-en-(E)-ylidene]-hydrazide] | 14.5
Cc1ccc(OCC(=O)N/N=C/c2ccc(O)c([N+](=O)[O-])c2)c([N+](=O)[O-])c1 [SMR000312577] | 8.42
